The source of these data is patent US8778966B2, “Quinolinone derivatives as PARP and tank inhibitors” (Janssen Pharmaceutica, NV, priority 2007, dated 2014).

Molecules are shown by their SMILES.

For one data set, the system named is tubulin. In words: Tubulin polymerization assay. More on the design: key: a compound showing 0 to 50% inhibition at 20 μM is reported as score 1; Score 2 compounds are defined as compound showing more than 50% inhibition at 20 μM and less than 50% inhibition at 5 μM; a compound showing more than 50% inhibition at 5 μM is reported as score 3. The note with it: tested at 20 μM and 5 μM. It counts as biochemical. Put shortly:
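Cytoskeleton kit tubulin was run in a 10 µl final volume at 37 °C, with fluorescence read every minute for 1 h. Polymerization was taken as the maximum slope (4-point linear regression) and expressed as % of no-compound control. Compounds were tested at 20 µM, then at 5 µM if inhibition exceeded 50%, and scored by % inhibition.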

The target of the next data set is T1, TANK-2 enzyme (Homo sapiens, UniProt Q9H2K2).
T1 construct: made in house
T1 sequence (Q9H2K2 1-1166): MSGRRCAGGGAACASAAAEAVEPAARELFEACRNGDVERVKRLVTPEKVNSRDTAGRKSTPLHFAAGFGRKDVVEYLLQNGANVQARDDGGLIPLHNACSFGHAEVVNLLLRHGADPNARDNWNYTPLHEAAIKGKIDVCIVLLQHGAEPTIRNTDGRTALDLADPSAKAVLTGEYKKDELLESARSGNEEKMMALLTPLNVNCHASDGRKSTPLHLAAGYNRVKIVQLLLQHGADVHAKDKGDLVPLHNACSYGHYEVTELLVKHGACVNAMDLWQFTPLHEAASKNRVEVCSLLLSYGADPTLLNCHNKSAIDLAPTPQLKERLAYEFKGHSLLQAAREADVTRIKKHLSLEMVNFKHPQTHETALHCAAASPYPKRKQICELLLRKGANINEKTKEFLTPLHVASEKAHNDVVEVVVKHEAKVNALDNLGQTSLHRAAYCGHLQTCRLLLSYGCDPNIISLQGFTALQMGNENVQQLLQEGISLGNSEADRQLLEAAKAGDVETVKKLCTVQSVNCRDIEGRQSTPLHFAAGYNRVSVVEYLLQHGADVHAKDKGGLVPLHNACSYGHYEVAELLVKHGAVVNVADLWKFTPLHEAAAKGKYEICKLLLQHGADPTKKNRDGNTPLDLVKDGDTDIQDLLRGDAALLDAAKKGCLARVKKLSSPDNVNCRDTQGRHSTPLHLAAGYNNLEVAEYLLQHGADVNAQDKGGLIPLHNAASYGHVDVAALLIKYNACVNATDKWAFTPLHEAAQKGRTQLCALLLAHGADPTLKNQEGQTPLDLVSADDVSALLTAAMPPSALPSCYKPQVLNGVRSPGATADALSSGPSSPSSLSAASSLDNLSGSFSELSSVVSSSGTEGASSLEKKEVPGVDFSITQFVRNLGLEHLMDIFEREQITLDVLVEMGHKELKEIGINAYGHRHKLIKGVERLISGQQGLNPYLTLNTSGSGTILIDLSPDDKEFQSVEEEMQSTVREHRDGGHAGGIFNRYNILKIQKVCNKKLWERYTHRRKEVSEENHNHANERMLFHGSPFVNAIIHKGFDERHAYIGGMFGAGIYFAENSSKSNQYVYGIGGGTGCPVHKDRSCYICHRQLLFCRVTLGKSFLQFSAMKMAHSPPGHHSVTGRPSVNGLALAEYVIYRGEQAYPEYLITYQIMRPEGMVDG
Put plainly: In vitro Scintillation Proximity Assay (SPA) for TANK-2 inhibitory activity. In kind it is biochemical. As to conditions: read-out: in vitro SPA assay TANK-2 pIC50 (converted). Put shortly: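 TANK-2 (8 μg/ml final) auto-poly(ADP-ribosyl)ation with [3H]-NAD+/NAD donor was run in Ni flash plates in Tris/HCl pH 7.4 buffer with DTT and MgCl2, 120 min at room temperature, then stopped with excess NAD and scintillation-counted. Blank-corrected cpm was expressed as % of enzyme control, and IC50 was linearly interpolated and reported as pIC50.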
Background: Scintillation proximity formats need no separation of bound from free tracer.

For the compound `CCc1cc2ccc([C@@](C)(C#N)CN(C)Cc3ccc(C#N)cc3)cc2[nH]c1=O` (single isomer, unassigned) [Compound 253], the melting point was 116 °C. This compound also came in with a tubulin polymerisation score in the data set with tubulin of 2. Also, the IC50 on TANK-2 enzyme is 0.2 µM.

Turning to `CCc1cc2ccc(C(C)(C#N)Cc3cccc(I)c3)cc2[nH]c1=O` (stereo not drawn) [Compound 19], the melting point amounted to 158 °C. In the data set on tubulin, this compound came in with a tubulin polymerisation score of 2. The IC50 at TANK-2 enzyme is 0.158 µM.

`CCc1cc2ccc(C(C)(C#N)Cc3cc(C)cc(C#N)c3)cc2[nH]c1=O` (stereo not drawn) [Compound 174] registered a melting point of 212 °C. The IC50 at TANK-2 enzyme is 0.2 µM.

`CCc1cc2ccc(C(C)(C#N)Cc3cccc(S(F)(F)(F)(F)F)c3)cc2[nH]c1=O` (stereo not drawn) [Compound 177] yielded a melting point of 124 °C. Also, at TANK-2 enzyme, the IC50 is 0.398 µM.

The compound `CCc1cc2ccc(C(C)(C#N)Cc3cccc(C4(N)CC4)c3)cc2[nH]c1=O` (stereo not drawn) [Compound 180] came in with a melting point greater than 250 °C. Further, the IC50 on TANK-2 enzyme is 0.158 µM.

Compound `CCc1cc2ccc(C(C)(C#N)CCCN(C)C(=O)c3ccc(F)cc3)cc2[nH]c1=O` (stereo not drawn) [Compound 188] showed a melting point of 256 °C. In addition, the IC50 on TANK-2 enzyme was 0.02 µM.

Compound `CCc1cc2ccc([C@](C)(C#N)CN(C)Cc3ccc(C#N)cc3)cc2[nH]c1=O` [Compound 190] had a melting point of 106 °C. The IC50 at TANK-2 enzyme is 0.251 µM.

Consider `CCc1cc2cc(C)c(C(C)(C#N)Cc3cccc(C#N)n3)cc2[nH]c1=O` (stereo not drawn) [Compound 208], for which the melting point is greater than 250 °C. The IC50 at TANK-2 enzyme is 0.0398 µM.

Compound `CCc1cc2ccc(C(C)(C#N)Cc3ccc(Cl)nc3Cl)cc2[nH]c1=O` (stereo not drawn) [Compound 212] showed a melting point of 222 °C. The IC50 on TANK-2 enzyme was 0.126 µM.

Compound `COc1cc2ccc(C(C)(C#N)Cc3cccc(C#N)n3)cc2[nH]c1=O` (stereo not drawn) [Compound 218] yielded a melting point of 95 °C. The tubulin polymerisation score in the data set with tubulin came out at 2. Moreover, the IC50 on TANK-2 enzyme is 1 µM.

In turn, `CCc1cc2ccc(C(C)(C#N)Cc3ccc(OC)nc3Cl)cc2[nH]c1=O` (stereo not drawn) [Compound 224] returned a melting point of 167 °C. At TANK-2 enzyme, the IC50 was 0.2 µM.

Compound `CCc1cc2ccc(C(C)(C#N)Cc3ccc(Cl)nc3OC)cc2[nH]c1=O` (stereo not drawn) [Compound 225] displayed a melting point of 160 °C. For the same compound, in the data set on tubulin, the tubulin polymerisation score is 2. Moreover, the IC50 on TANK-2 enzyme was 0.126 µM.

`CCc1cc2ccc(C(C)(C#N)Cc3cccc(N4CCCC4)n3)cc2[nH]c1=O` (stereo not drawn) [Compound 226]: the melting point was determined as 155 °C. In addition, the tubulin polymerisation score in the data set on tubulin is 2. Also, the IC50 at TANK-2 enzyme is 0.2 µM.

In the case of `CCc1cc2ccc(C(C)(C#N)Cc3cc(OC)cc(OC)n3)cc2[nH]c1=O` (stereo not drawn) [Compound 232], the melting point was found to be 65 °C. The tubulin polymerisation score in the data set with tubulin amounted to 2. Moreover, the IC50 on TANK-2 enzyme is 0.0631 µM.

For `CCc1cc2ccc(C(C)(C#N)Cc3cc(C#N)cc4c3OCC4)cc2[nH]c1=O` (stereo not drawn) [Compound 236], the melting point was 250 °C. Moreover, the tubulin polymerisation score in the data set on tubulin was determined as 2. For the same compound, the IC50 on TANK-2 enzyme was 0.0316 µM.

`CCc1cc2ccc(C(C)(C#N)Cc3cc4ccccc4nn3)cc2[nH]c1=O` (stereo not drawn) [Compound 238] displayed a melting point of 250 °C. The IC50 at TANK-2 enzyme is 0.251 µM.

One may read the melting point as the temperature of the solid-liquid transition.
